The text below walks through data of ChEMBL document CHEMBL4665871, “Small-molecule active pharmaceutical ingredients of approved cancer therapeutics inhibit human aspartate/asparagine-β-hydroxylase” (Bioorg Med Chem, 2020).

For experiment [1], the target named is T1, Aspartyl/asparaginyl beta-hydroxylase (Homo sapiens, UniProt Q12797).
T1 sequence (Q12797 whole entry): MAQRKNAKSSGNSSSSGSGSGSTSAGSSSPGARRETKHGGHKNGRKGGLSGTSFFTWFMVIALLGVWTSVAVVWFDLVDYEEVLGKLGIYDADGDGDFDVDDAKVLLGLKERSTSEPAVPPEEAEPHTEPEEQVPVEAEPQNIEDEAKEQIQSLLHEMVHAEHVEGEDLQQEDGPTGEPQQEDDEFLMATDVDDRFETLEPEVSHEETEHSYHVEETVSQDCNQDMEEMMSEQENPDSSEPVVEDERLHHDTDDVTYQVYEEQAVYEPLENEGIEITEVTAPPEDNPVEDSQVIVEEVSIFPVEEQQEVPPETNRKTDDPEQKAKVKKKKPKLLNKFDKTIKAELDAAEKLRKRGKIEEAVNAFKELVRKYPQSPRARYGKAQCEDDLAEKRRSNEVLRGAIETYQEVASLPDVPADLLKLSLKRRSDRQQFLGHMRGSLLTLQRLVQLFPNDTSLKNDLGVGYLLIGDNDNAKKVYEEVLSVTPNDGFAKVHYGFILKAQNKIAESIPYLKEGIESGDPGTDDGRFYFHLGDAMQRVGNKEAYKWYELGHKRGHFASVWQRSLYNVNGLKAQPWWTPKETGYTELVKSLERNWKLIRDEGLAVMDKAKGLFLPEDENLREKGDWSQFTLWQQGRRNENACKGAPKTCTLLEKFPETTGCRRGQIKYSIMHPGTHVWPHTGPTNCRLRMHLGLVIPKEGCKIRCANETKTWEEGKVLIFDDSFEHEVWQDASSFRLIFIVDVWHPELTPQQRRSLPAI
Kind of experiment: Inhibition of N-His6-tagged human AspH (315-755) expressed in Escherichia coli BL21 (DE3) using 1 uM hFX-CP as substrate mixture with 3 uM 2OG, 100 uM L-ascorbic acid and high 20 uM FAS incubated for 35 mins by MS analysis.

For experiment [2], the target named is T1, Aspartyl/asparaginyl beta-hydroxylase. The experiment can be described thus: Inhibition of N-His6-tagged human AspH (315-755) expressed in Escherichia coli BL21 (DE3) using high 10 uM hFX-CP as substrate mixture with 10 uM 2OG, 100 uM L-ascorbic acid and 2 uM FAS incubated for 35 mins by MS analysis.
The target is the same in experiment [3]. The experiment can be described thus: Inhibition of N-His6-tagged human AspH (315-755) expressed in Escherichia coli BL21 (DE3) using 1 uM hFX-CP as substrate mixture with high 200 uM 2OG, 100 uM L-ascorbic acid and 2 uM FAS incubated for 35 mins by MS analysis.

Molecules are shown by their SMILES.

For `CO[C@H](C(=O)[C@@H](O)[C@@H](C)O)[C@@H]1Cc2cc3cc(O[C@H]4C[C@@H](O[C@H]5C[C@@H](O)[C@H](O)[C@@H](C)O5)[C@H](O)[C@@H](C)O4)c(C)c(O)c3c(O)c2C(=O)[C@H]1O[C@H]1C[C@@H](O[C@H]2C[C@@H](O[C@H]3C[C@](C)(O)[C@H](O)[C@@H](C)O3)[C@@H](O)[C@@H](C)O2)[C@H](O)[C@@H](C)O1`, the IC50 result in experiment [1] was “Not Active”; in experiment [2], 3.39 µM; in experiment [3] it was 12.2 µM.
